Measured values reported in PubChem BioAssay AID248 (DTP/NCI, 2004).
Inconclusive results and toxic doses are left out. Rule as the data show it: active = T/C of 150% or more; inactive = T/C below 125%.

System: L1210 leukemia ip in BDF1 mice, survival T/C
Test: NCI In Vivo Anticancer Drug Screen. Data for tumor model L1210 Leukemia (intraperitoneal) in B6D2F1 (BDF1) mice
Settings: endpoint: mean survival time, higher = longer survival
Method in brief: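 Antitumor effect is assessed in tumor-bearing animals. Survival in the compound arm is compared with a vehicle-dosed control arm and expressed as their quotient.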

[1] = dose: 100.0 mg/kg/injection, schedule: Q04DX003 (ip), vehicle: saline
[2] = dose: 200.0 mg/kg/injection, schedule: Q04DX003 (ip), vehicle: saline
[3] = dose: 400.0 mg/kg/injection, schedule: Q04DX003 (ip), vehicle: saline
[4] = dose: 50.0 mg/kg/injection, schedule: Q01DX009 (ip), vehicle: Klucel (hydroxypropylcellulose) (HPC)
[5] = dose: 100.0 mg/kg/injection, schedule: Q01DX009 (ip), vehicle: Klucel (hydroxypropylcellulose) (HPC)
[6] = dose: 200.0 mg/kg/injection, schedule: Q01DX009 (ip), vehicle: Klucel (hydroxypropylcellulose) (HPC)
[7] = dose: 100.0 mg/kg/injection, schedule: Q04DX003 (ip), vehicle: saline with Tween-80
[8] = dose: 200.0 mg/kg/injection, schedule: Q04DX003 (ip), vehicle: saline with Tween-80
[9] = dose: 400.0 mg/kg/injection, schedule: Q04DX003 (ip), vehicle: saline with Tween-80
[10] = dose: 100.0 mg/kg/injection, schedule: Q04DX003 (ip), vehicle: Klucel (hydroxypropylcellulose) (HPC)
[11] = dose: 200.0 mg/kg/injection, schedule: Q04DX003 (ip), vehicle: Klucel (hydroxypropylcellulose) (HPC)
[12] = dose: 400.0 mg/kg/injection, schedule: Q01DX009 (ip), vehicle: Klucel (hydroxypropylcellulose) (HPC)
[13] = dose: 400.0 mg/kg/injection, schedule: Q04DX003 (ip), vehicle: Klucel (hydroxypropylcellulose) (HPC)
[14] = dose: 100.0 mg/kg/injection, schedule: Q01DX001 (ip), vehicle: carboxymethylcellulose (CMC)
[15] = dose: 200.0 mg/kg/injection, schedule: Q01DX001 (ip), vehicle: carboxymethylcellulose (CMC)
[16] = dose: 400.0 mg/kg/injection, schedule: Q01DX001 (ip), vehicle: carboxymethylcellulose (CMC)

Measured: T/C

CNC(=O)C(C)C1C(=O)/C(=C(O)/C=C/C(C)=C\C(C)C2OC3(C)OC(C=CC34CO4)C2C)C(=O)N1C1CCC(O)C(C)O1 (centres undefined)
inactive: dose: 100.0 mg/kg/injection, schedule: Q01DX009 (ip), vehicle: saline 111 % of control | [1] 97 % of control | dose: 200.0 mg/kg/injection, schedule: Q01DX009 (ip), vehicle: saline 101 % of control | [2] 105 % of control | [3] 107 % of control

O=c1[nH]c2ccc([N+](=O)[O-])cc2c2nc3ccccc3n12
inactive: [4] 95 % of control | [5] 101 % of control | [6] 95 % of control

COc1cc(C)c(OC)c(CCl)c1C
inactive: [7] 97 % of control | [8] 98 % of control | [9] 92 % of control

CCOC(=O)C(C)Nc1ccccc1 (centres undefined)
inactive: [5] 100 % of control | [10] 103 % of control | [6] 104 % of control | [11] 118 % of control | [12] 98 % of control | [13] 98 % of control

O=C(NCCCl)Nc1cccc(Cl)c1
inactive: dose: 25.0 mg/kg/injection, schedule: Q01DX001 (ip), vehicle: saline with Tween-80 97 % of control | dose: 50.0 mg/kg/injection, schedule: Q01DX001 (ip), vehicle: saline with Tween-80 94 % of control | dose: 100.0 mg/kg/injection, schedule: Q01DX001 (ip), vehicle: saline with Tween-80 86 % of control

Nc1[nH]c(=S)[nH]c(=O)c1NC(=O)C1CC1
inactive: [1] 96 % of control | [2] 105 % of control | [3] 102 % of control

Clc1ccc2ccc(Cl)cc2c1
inactive: [14] 103 % of control | [15] 95 % of control | [16] 94 % of control

N#CCCC(C#N)(c1cccnc1)N1CCOCC1 (centres undefined)
inactive: dose: 6.25 mg/kg/injection, schedule: Q04DX002 (ip), vehicle: saline with Tween-80 98 % of control | dose: 12.5 mg/kg/injection, schedule: Q04DX002 (ip), vehicle: saline with Tween-80 98 % of control | dose: 25.0 mg/kg/injection, schedule: Q04DX002 (ip), vehicle: saline with Tween-80 98 % of control

C/C(=N\N=C(/C)c1ccc2cc3c(cc2c1)OCO3)c1ccc2cc3c(cc2c1)OCO3
inactive: dose: 75.0 mg/kg/injection, schedule: Q01DX001 (ip), vehicle: saline 97 % of control | dose: 150.0 mg/kg/injection, schedule: Q01DX001 (ip), vehicle: saline 92 % of control | dose: 300.0 mg/kg/injection, schedule: Q01DX001 (ip), vehicle: saline 89 % of control

c1cc2c([nH]1)CCCC2
inactive: dose: 75.0 mg/kg/injection, schedule: Q01DX001 (ip), vehicle: acetone 106 % of control | dose: 150.0 mg/kg/injection, schedule: Q01DX001 (ip), vehicle: acetone 111 % of control | dose: 300.0 mg/kg/injection, schedule: Q01DX001 (ip), vehicle: acetone 100 % of control

CN(C)P(=O)(c1ccccc1)c1ccccc1
inactive: dose: 100.0 mg/kg/injection, schedule: Q04DX002 (ip), vehicle: saline with Tween-80 112 % of control | dose: 200.0 mg/kg/injection, schedule: Q04DX002 (ip), vehicle: saline with Tween-80 102 % of control | dose: 400.0 mg/kg/injection, schedule: Q04DX002 (ip), vehicle: saline with Tween-80 94 % of control

CC(C)(c1cc(Cl)c(OCCO)c(Cl)c1)c1cc(Cl)c(OCCO)c(Cl)c1
inactive: dose: 100.0 mg/kg/injection, schedule: Q01DX009 (ip), vehicle: saline with Tween-80 103 % of control | dose: 200.0 mg/kg/injection, schedule: Q01DX009 (ip), vehicle: saline with Tween-80 103 % of control | dose: 400.0 mg/kg/injection, schedule: Q01DX009 (ip), vehicle: saline with Tween-80 95 % of control

S=C1NCCCS1
inactive: dose: 12.5 mg/kg/injection, schedule: Q01DX009 (ip), vehicle: Klucel (hydroxypropylcellulose) (HPC) 93 % of control | dose: 25.0 mg/kg/injection, schedule: Q01DX009 (ip), vehicle: Klucel (hydroxypropylcellulose) (HPC) 104 % of control | [4] 98 % of control | [5] 101 % of control | [10] 98 % of control | [11] 95 % of control | [13] 104 % of control

N=c1c2ccccc2c2ccccc2n1O
inactive: [7] 96 % of control | [8] 98 % of control | [9] 103 % of control

COC(=O)CC(Br)CBr (centres undefined)
inactive: [14] 100 % of control | [15] 100 % of control

CCCCCCCCCCCCC(O)C(O)CCCCCCCC(=O)O (centres undefined)
inactive: [5] 94 % of control | [6] 93 % of control | [12] 93 % of control

O=C(CCCC(=O)NNC(=S)Nc1cccc2ccccc12)NNC(=S)Nc1cccc2ccccc12
inactive: dose: 50.0 mg/kg/injection, schedule: Q01DX001 (ip), vehicle: saline 98 % of control | dose: 100.0 mg/kg/injection, schedule: Q01DX001 (ip), vehicle: saline 93 % of control | dose: 200.0 mg/kg/injection, schedule: Q01DX001 (ip), vehicle: saline 96 % of control | dose: 400.0 mg/kg/injection, schedule: Q01DX001 (ip), vehicle: saline 96 % of control

CCCCCC[As](=O)(O)O
inactive: dose: 1.5 mg/kg/injection, schedule: Q01DX001 (ip), vehicle: carboxymethylcellulose (CMC) 98 % of control | dose: 3.0 mg/kg/injection, schedule: Q01DX001 (ip), vehicle: carboxymethylcellulose (CMC) 93 % of control | dose: 6.0 mg/kg/injection, schedule: Q01DX001 (ip), vehicle: carboxymethylcellulose (CMC) 102 % of control

Cc1nc(S(C)(=O)=O)nc(S(C)(=O)=O)c1Cl
inactive: dose: 1.5 mg/kg/injection, schedule: Q01DX001 (ip), vehicle: Klucel (hydroxypropylcellulose) (HPC) 92 % of control | dose: 3.0 mg/kg/injection, schedule: Q01DX001 (ip), vehicle: Klucel (hydroxypropylcellulose) (HPC) 95 % of control | dose: 6.0 mg/kg/injection, schedule: Q01DX001 (ip), vehicle: Klucel (hydroxypropylcellulose) (HPC) 104 % of control | dose: 12.0 mg/kg/injection, schedule: Q01DX001 (ip), vehicle: Klucel (hydroxypropylcellulose) (HPC) 104 % of control | dose: 12.5 mg/kg/injection, schedule: Q01DX001 (ip), vehicle: Klucel (hydroxypropylcellulose) (HPC) 107 % of control

OC1(c2ccccc2)CC2CC1c1ccccc12 (centres undefined)
inactive: [14] 111 % of control | [15] 93 % of control | [16] 90 % of control

CC(C)(C)O.[Zr]
inactive: dose: 25.0 mg/kg/injection, schedule: Q01DX009 (ip), vehicle: other 108 % of control | dose: 50.0 mg/kg/injection, schedule: Q01DX009 (ip), vehicle: other 97 % of control | dose: 100.0 mg/kg/injection, schedule: Q01DX009 (ip), vehicle: other 90 % of control | [1] 96 % of control | dose: 200.0 mg/kg/injection, schedule: Q01DX009 (ip), vehicle: other 103 % of control | [2] 98 % of control | [3] 94 % of control

CCCCCCCCCCCCCCCCCCNC(=O)N(C)C1CCCCC1
inactive: [5] 88 % of control | [6] 89 % of control | [12] 101 % of control

Oc1ccc(C=NCCN=Cc2ccc(O)cc2O)c(O)c1
inactive: dose: 8.0 mg/kg/injection, schedule: Q01DX009 (ip), vehicle: saline with Tween-80 87 % of control | dose: 12.0 mg/kg/injection, schedule: Q01DX009 (ip), vehicle: saline with Tween-80 89 % of control

O=c1oc2c(CN3CCCCC3)c(O)ccc2c2c1CCCC2
inactive: [14] 93 % of control | [15] 96 % of control | [16] 93 % of control

CCN(C(=O)c1ccc(Cl)cc1Cl)c1ccccc1C
inactive: [5] 98 % of control | [10] 97 % of control | [6] 96 % of control | [11] 108 % of control | [12] 101 % of control | [13] 98 % of control

Cn1nnnc1/N=C/c1ccccc1
inactive: [1] 105 % of control | [2] 94 % of control | [3] 94 % of control

COc1cc(C(=O)c2ccccc2C(=O)O)c(OC)c2c1CCCC2
inactive: [14] 91 % of control | [15] 92 % of control | [16] 96 % of control

CCOC(=O)c1cnc(SC)nc1Nc1ccc(Br)cc1
inactive: [4] 93 % of control | [5] 92 % of control | [10] 124 % of control | [6] 88 % of control | [11] 124 % of control | [13] 87 % of control
